Assay results reported in ChEMBL document CHEMBL5325459, “Design, synthesis, and analgesia evaluation of novel Transient Receptor Potential Vanilloid 1 (TRPV1) agonists modified from Cannabidiol (CBD)” (Bioorg Med Chem, 2023).

What was measured:
[1] = target: T1, Transient receptor potential cation channel subfamily V member 1 (Homo sapiens, UniProt Q8NER1); experiment: Agonist activity at human TRPV1 overexpressed in HEK293 cells incubated for 1 hr by Fluo-4 AM dye based microscopic analysis; type: cell-based
[2] = Toxicity in Kunming mouse assessed as decrease in core body temperature at 50 mg/kg measured after 15 mins; type: organism-based; details: in vivo, 0.25 h
[3] = Toxicity in Kunming mouse assessed as decrease in core body temperature at 50 mg/kg measured upto hrs; type: organism-based; details: in vivo
[4] = target: T1, Transient receptor potential cation channel subfamily V member 1; experiment: Binding affinity to human TRPV1 assessed as dissociation constant by SPR analysis

T1 sequence (Q8NER1 whole entry): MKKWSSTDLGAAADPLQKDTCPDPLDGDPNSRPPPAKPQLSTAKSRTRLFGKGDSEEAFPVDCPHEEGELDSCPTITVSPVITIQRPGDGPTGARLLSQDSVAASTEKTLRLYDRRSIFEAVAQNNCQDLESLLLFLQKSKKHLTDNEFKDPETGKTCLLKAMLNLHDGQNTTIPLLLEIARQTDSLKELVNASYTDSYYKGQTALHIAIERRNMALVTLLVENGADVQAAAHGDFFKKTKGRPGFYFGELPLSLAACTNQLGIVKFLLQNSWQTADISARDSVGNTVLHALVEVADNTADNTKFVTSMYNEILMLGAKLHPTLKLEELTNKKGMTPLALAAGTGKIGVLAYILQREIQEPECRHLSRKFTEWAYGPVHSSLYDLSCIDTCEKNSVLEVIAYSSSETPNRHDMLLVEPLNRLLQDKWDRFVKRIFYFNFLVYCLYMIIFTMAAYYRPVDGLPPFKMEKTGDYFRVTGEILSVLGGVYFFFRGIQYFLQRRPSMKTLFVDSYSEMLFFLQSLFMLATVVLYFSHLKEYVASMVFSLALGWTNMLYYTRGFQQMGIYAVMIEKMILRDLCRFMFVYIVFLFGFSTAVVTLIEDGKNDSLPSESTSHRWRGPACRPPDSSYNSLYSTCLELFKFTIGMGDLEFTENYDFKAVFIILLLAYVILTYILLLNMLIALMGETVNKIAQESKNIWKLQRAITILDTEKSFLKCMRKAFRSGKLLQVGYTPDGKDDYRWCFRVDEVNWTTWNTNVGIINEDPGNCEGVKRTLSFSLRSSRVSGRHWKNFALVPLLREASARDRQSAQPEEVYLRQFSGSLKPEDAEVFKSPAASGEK

Row | SMILES | EC50 [1] [µM] | further results
1 | CCCCCc1cc(O)c(NS(=O)(=O)c2cc(F)cc(F)c2)c(O)c1 | 39.8 | –
2 | COc1ccc(COC(=O)CCc2cc(O)c(NS(=O)(=O)c3cc(F)cc(F)c3)c(O)c2)cc1OC | – | Activity [2]: Toxic
3 | CCCCCc1cc(O)c(NS(=O)(=O)c2ccc(-c3ccccc3)cc2)c(O)c1 | 4.42 | –
4 | COc1cc(COC(=O)CCc2cc(O)c(NS(=O)(=O)c3cc(F)cc(F)c3)c(O)c2)ccc1O | – | Activity [3]: Non-Toxic
5 | CCCCCc1cc(O)c(NS(=O)(=O)c2cccc3cccnc23)c(O)c1 | 36.4 | –
6 | C=C(C)[C@@H]1CCC(C)=C[C@H]1c1c(O)cc(CCCCC)cc1O [CANNABIDIOL] | 38.5 | Activity [3]: Non-Toxic; Kd [4]: 110 µM

Second part, led by results:

Row | EC50 [1] [µM] | SMILES | further results
7 | 71.2 | CCCCCc1cc(O)c(NC(=O)c2ccc(=O)oc2)c(O)c1 | –
8 | 40.5 | CCCCCc1cc(O)c(NC(=O)Nc2cccc3ncccc23)c(O)c1 | –
9 | 10.4 | CCCCCc1cc(O)c(NS(=O)(=O)c2cccc(C(F)(F)F)c2)c(O)c1 | –
